# Assay results reported in patent US12673070B2, “Treatment of sepsis and hypercytokinemia” (TX MEDIC AB, priority 2020, dated 2026).
# Entries after “also recorded” stand apart in the source; their conditions may differ.
# Legend:
# [1] = monoclonal antibodies neutralizing TNFα; cited from earlier work
# human purified monocytes = test: Stimulated IL-6 release from human purified monocytes (ELISA), Example 2; format: cell-based; conditions: 24 hours, LMW-DS 60-600 μg/ml, heparin 2.0-20 μg/ml, dexamethasone 3.0 μM, n=10 donors; for LPS-stimulated IL-6 release into the cell culture supernatant: LPS (0.01 ng/ml); for peptidoglycan-stimulated IL-6 release into the cell culture supernatant: peptidoglycan (30 ng/ml)
# Protocol: Peripheral blood mononuclear cells (PBMC) were isolated from healthy donors through Ficoll-Paque PLUS (GE Healthcare; 11778538) density centrifugation. Monocytes were purified using the EasySep™ human monocyte enrichment kit (StemCell) that purifies monocytes ‘untouched’ to maintain their phenotype.
# Monocytes were cultured in the absence (unstimulated PBS vehicle controls) or presence of stimulation (LPS or peptidoglycan) in the absence (vehicle) or presence of LMW-DS (ILB®, Tikomed AB, Viken, Sweden, WO 2016/076780; three concentrations: 600 μg/ml, 200 μg/ml and 60 μg/ml), heparin (2.0, 6.0 or 20 μg/ml; equivalent to 0.406, 1.218 and 4.06 units/ml; Sigma Aldrich) or dexamethasone (3.0 μM; Sigma Aldrich) for 24 hours at 37° C., 5% CO2. Following centrifugation, cell culture supernatants were removed and stored at −20° C. awaiting analysis for IL-6 by ELISA. Levels of IL-6 were quantified in the supernatant by ELISA (R&D systems) according to manufacturer's instructions.
# IL-6 = test: Serum IL-6 in MND/ALS patients treated with LMW-DS (Luminex), Example 4; format: in vivo, human; conditions: 8 ALS patients; weekly 1.0 mg/kg s.c.; measured at 10 weeks of treatment
# Source text: Serum samples were taken from Motor Neuron Disease (MND)/Amyotrophic Lateral Sclerosis (ALS) patients in a clinical trial (EudraCT Number: 2018-000668-28) prior to and 5, 10 and 24 weeks following treatment with LMW-DS (ILB®, Tikomed AB, Viken, Sweden, WO 2016/076780). Frozen serum samples were thawed and quantified for IL-6 using the Luminex assay system (Bio-Plex 200 system with Bio-Plex Manager software) according to manufacturer's instructions. After an initial screening visit, patients had weekly dosing of a single LMW-DS (ILB®, Tikomed AB, Viken, Sweden, WO 2016/076780) injection of 1.0 mg/kg body weight in saline into the subcutaneous fat of the lower abdomen with a maximum of 1.5 mL at each injection site.
# Statistical analysis was performed using the non-parametric Mann-Whitney U test with p<0.05 considered significant.
# human PBMCs = test: Cytokine secretion from stimulated human PBMCs (5-plex Luminex), Example 3; format: cell-based; conditions: 24 hours; for stimulated secretion of IL-1β / stimulated secretion of IL-8 / stimulated secretion of TNFα: highest concentration of LMW-DS
# Protocol: Example 1 investigated the ability of LMW-DS to modify the secretion of IL-6 from human PBMCs arising from the use of various stimuli. The present study performed a broader analysis of the cell culture supernatants arising from Example 1. Thus, peripheral blood mononuclear cells (PBMC) were isolated from healthy donors through Ficoll-Paque PLUS density centrifugation. The PBMC were cultured at 2×10^5 cells/well in the absence (unstimulated PBS vehicle controls) or presence of stimulation (LPS, peptidoglycan, pokeweed mitogen, PHA-L, CpG+IL-15, or Cytostim) in the absence (vehicle) or presence of LMW-DS (ILB®, Tikomed AB, Viken, Sweden, WO 2016/076780; three concentrations; 600 μg/ml, 200 μg/ml and 60 μg/ml) for 24 hours at 37° C., 5% CO2.
# Accordingly, the treatments were as follows for each PBMC donor: • i. Vehicle • ii. Simulation • iii. Stimulation+LMW-DS (60 μg/ml) • iv. Stimulation+LMW-DS (200 μg/ml) • v. Stimulation+LMW-DS (600 μg/ml)
# with each assessed in triplicate such that the total numbers of samples were: • 1. LPS; 165 samples (from 11 donors) • 2. Peptidoglycan from Bacillus subtilis; 90 samples (from 6 donors) • 3. PHA-L; 90 samples (from 6 donors) • 4. 0.2 μM CpG+IL-15; 90 samples (from 6 donors) • 5. 1.0 μM CpG+IL-15; 90 samples (from 6 donors) • 6. Pokeweed mitogen; 90 samples (from 6 donors) • 7. 10 μl/ml Cytostim; 90 samples (from 6 donors) • 8. 30 μl/ml Cytostim; 90 samples (from 6 donors) • Total number of supernatant samples from all stimulations (all cell types)=795
# Following treatment, cell culture supernatants were removed, centrifuged and stored at −20° C. before thawing for multiplex analysis of various cytokines using the 5-plex human magnetic Luminex assay from R&D systems (Cat. No. LXSAHM-05). Luminex analysis was carried out exactly following manufacturer's protocols.
# [2] = test system: human peripheral blood mononuclear cells (PBMCs); test: Stimulated release of IL-6 from human PBMCs in vitro (ELISA), Example 1; format: cell-based; conditions: 24 hours
# Protocol: PBMCs were isolated from healthy donors through Ficoll-Paque PLUS (GE Healthcare; 11778538) density centrifugation. PBMC were cultured at 2×10^5 cells/well in the absence (unstimulated phosphate-buffered saline (PBS) vehicle controls) or presence of stimulation (lipopolysaccharide (LPS), peptidoglycan, pokeweed mitogen, phytohemagglutinin-L (PHA-L), CpG+IL-15, or Cytostim) in the absence (vehicle) or presence of LMW-DS (ILB®, Tikomed AB, Viken, Sweden, WO 2016/076780) at three concentrations; 60 μg/ml, 200 μg/ml and 600 μg/ml for 24 hours at 37° C., 5% CO2. Following centrifugation, cell culture supernatants were removed and stored at −20° C. awaiting analysis for IL-6 by ELISA. Levels of IL-6 were quantified in the supernatant by ELISA (R&D systems; DY206) according to manufacturer's instructions.
# [3] = Cytostim stimulated PBMC, listed as Dextran sulfate
# [4] = LPS (0.01 ng/ml) stimulated PBMC, 60, 200, 600 μg/ml
# [5] = LPS (0.01 ng/ml) stimulated PBMC, 60, 200, 600 μg/ml, listed as Dextran sulfate
# [6] = LPS (0.01 ng/ml) stimulated PBMC
# [7] = LPS (0.01 ng/ml) stimulated PBMC, listed as Dextran sulfate
# [8] = PHA-L (1.0 μg/ml) stimulated PBMC, 60, 200, 600 μg/ml
# [9] = PHA-L (1.0 μg/ml) stimulated PBMC
# [10] = PHA-L (1.0 μg/ml) stimulated PBMC, listed as Dextran sulfate
# [11] = peptidoglycan (30 ng/ml) stimulated PBMC
# [12] = pokeweed mitogen (1.0 μg/ml) stimulated PBMC, 60, 200, 600 μg/ml
# [13] = pokeweed mitogen (1.0 μg/ml) stimulated PBMC, 60, 200, 600 μg/ml, listed as dextran sulfate
# [14] = pokeweed mitogen (1.0 μg/ml) stimulated PBMC
substance,measurement,setting,value
adalimumab,half-life,[1],around 14 days
certolizumab,half-life,[1],around 14 days
heparin [reference compound],LPS-stimulated IL-6 release into the cell culture supernatant,human purified monocytes,concentration dependent statistically significant enhancement; also recorded: did not significantly suppress IL-6 levels in LPS activated monocytes but rather increased the levels
same,peptidoglycan-stimulated IL-6 release into the cell culture supernatant,human purified monocytes,enhancement was mirrored to some extent by heparin although the trend did not reach statistical significance
infliximab,half-life,[1],around 14 days
low molecular weight dextran sulfate [LMW-DS],serum IL-6 levels as % of Pre-LMW-DS levels,IL-6,statistically significant decrease
same,secretion of IL-8,human PBMCs; CpG+IL-15 stimulated PBMC,little impact
same,IL-10 secretion,"human PBMCs; Cytostim stimulated PBMC, 60, 200, 600 μg/ml",concentration dependent large reduction
same,IL-10 secretion,"human PBMCs; Cytostim stimulated PBMC, 60, 200, 600 μg/ml, listed as Dextran sulfate",reduction
same,secretion of IFNγ,human PBMCs; Cytostim stimulated PBMC,small reductions
same,secretion of IL-1β,human PBMCs; Cytostim stimulated PBMC,small reductions
same,secretion of IL-8,human PBMCs; Cytostim stimulated PBMC,small reductions
same,secretion of TNFα,human PBMCs; Cytostim stimulated PBMC,small reductions
same,secretion of IFNγ,human PBMCs; [3],reduction
same,secretion of IL-8,human PBMCs; [3],reduction
same,secretion of TNFα,human PBMCs; [3],reduction
same,secretion of IFNγ,human PBMCs; [4],concentration dependent but small reduction
same,secretion of IL-10,human PBMCs; [4],concentration dependent but small reduction
same,secretion of IFNγ,human PBMCs; [5],reduction
same,secretion of IL-10,human PBMCs; [5],reduction
same,stimulated secretion of IL-1β,human PBMCs; [6],modest reduction
same,stimulated secretion of IL-8,human PBMCs; [6],modest reduction
same,stimulated secretion of TNFα,human PBMCs; [6],modest reduction
same,stimulated secretion of IL-1β,human PBMCs; [7],reduction
same,stimulated secretion of IL-8,human PBMCs; [7],reduction
same,stimulated secretion of TNFα,human PBMCs; [7],reduction
same,IL-10 secretion,human PBMCs; [8],"large, concentration dependent decrease"
same,IL-10 secretion,"human PBMCs; PHA-L (1.0 μg/ml) stimulated PBMC, 60, 200, 600 μg/ml, listed as Dextran sulfate",reduction
same,stimulated release of IFNγ,human PBMCs; [9],small decreases
same,stimulated release of IL-8,human PBMCs; [9],small decreases
same,stimulated release of TNFα,human PBMCs; [9],small decreases
same,stimulated release of IFNγ,human PBMCs; [10],reduction
same,stimulated release of TNFα,human PBMCs; [10],reduction
same,IL-1β secretion,human PBMCs; [11],associated increases
same,TNFα secretion,human PBMCs; [11],associated increases
same,cytokine release (IL-8),"human PBMCs; peptidoglycan (30 ng/ml) stimulated PBMC, up to highest concentration tested","little evidence of LMW-DS, even at the highest concentration tested, of causing a general reduction in cytokine release"
same,IL-10 secretion,human PBMCs; [12],concentration-dependent decrease
same,IL-10 secretion,human PBMCs; [13],reduction
same,secretion of IFNγ,human PBMCs; [14],not impacted generally
same,secretion of IL-1β,human PBMCs; [14],not impacted generally
same,secretion of IL-8,human PBMCs; [14],not impacted generally
same,secretion of TNFα,human PBMCs; [14],not impacted generally
same,IL-6 release,[2]; CpG (0.2 μM)+IL-15 (15 ng/ml) stimulated PBMC,not generally impacted
same,IL-6 release,[2]; Cytostim (10 μl/ml) stimulated PBMC,not generally impacted
same,IL-6 release into the cell culture supernatant,[2]; [4],concentration dependent and statistically significant reduction
same,IL-6 release into the cell culture supernatant,[2]; [5],concentration dependent reduction
same,IL-6 release into the cell culture supernatant,"[2]; LPS (0.01 ng/ml) stimulated PBMC, 60, 200, 600 μg/ml, listed as dextran sulfate",suppress IL-6 cytokine production
same,IL-6 release,[2]; [8],inhibited significantly in a concentration-dependent manner
same,IL-6 release,[2]; higher concentration CpG (1.0 μM)+IL-15 (15 ng/ml) stimulated PBMC,no general impact
same,IL-6 release,"[2]; higher concentration CpG (1.0 μM)+IL-15 (15 ng/ml) stimulated PBMC, listed as dextran sulfate",not significantly affecting
same,IL-6 release,[2]; higher concentration Cytostim (30 μl/ml) stimulated PBMC,no general impact
same,IL-6 release,"[2]; higher concentration Cytostim (30 μl/ml) stimulated PBMC, listed as dextran sulfate",not significantly affecting
same,IL-6 release into the cell culture supernatant,"[2]; peptidoglycan (30 ng/ml) stimulated PBMC, 60, 200, 600 μg/ml","little evidence of LMW-DS, even at the highest concentration tested, of causing a general reduction in IL-6 release"
same,IL-6 release into the cell culture supernatant,"[2]; peptidoglycan (30 ng/ml) stimulated PBMC, 60, 200, 600 μg/ml, listed as dextran sulfate",not significantly affecting
same,IL-6 release,[2]; [12],not impacted generally
same,IL-6 release,[2]; [13],not significantly affecting
same,LPS-stimulated IL-6 release into the cell culture supernatant,human purified monocytes,concentration dependent statistically significant inhibition
same,LPS-stimulated IL-6 release into the cell culture supernatant,human purified monocytes; listed as Dextran sulfate,concentration dependent reduction
same,peptidoglycan-stimulated IL-6 release into the cell culture supernatant,human purified monocytes,concentration dependent statistically significant increase
